Data from patent US10376484B2, “Combination of bezafibrate and of resveratrol or resveratrol derivatives for the treatment and prevention of diseases involving a mitochondrial energy dysfunction” (priority 2013, dated 2019).

Assays:
Assay type in all cases: cell-based, human
[1] = test system: fibroblasts of patients suffering from moderate CPT2 deficiency; experiment: Tritiated palmitate β-oxidation (FAO) in fibroblasts after 48 h treatment, CPT2 deficiency; conditions: for % increase in fatty acid oxidation (FAO): 48 h, vs carrier
Description: (§1) Cellular palmitate β-oxidation activity can be measured with any suitable technology known to persons skilled in the art. That can in particular be achieved by using tritiated palmitate complexed with BSA (bovine albumin serum), which is added to the cells to be tested. After incubation, the addition of trichloroacetic acid (TCA) in a supernatant sample makes it possible to precipitate unmetabolized complexes (BSA/tritiated palmitate), which are excluded by centrifugation. The measurement of tritium present in the supernatant after centrifugation and exclusion of unmetabolized complexes (BSA/tritiated palmitate) makes it possible to determine the amount of palmitate metabolized by the cells. A precise example of a protocol for implementing this process for measuring palmitate β-oxidation activity is described in Example 1. The fibroblasts are grown at 37° C. in complete Ham's F10 medium, i.e., supplemented with 12% fetal calf serum, 100 U/ml penicillin, and 0.1 mg/ml streptomycin, at a concentration of 70,000 cells per ml and per well in 24-well culture dishes. Twenty-four hours after seeding, stock solutions of RSV (0.2 M) and of BZ (0.4 M) are prepared in DMSO in order to prepare the various cell treatment media. For the treatment, the culture medium is discarded and replaced with 1 ml of complete Ham's F10 medium supplemented with one of the molecules of interest at one of the following concentrations, 75 μM RSV, or 400 μM BZ, or 20 μM RSV, or 30 μM RSV, […], […], or the culture medium is discarded and replaced with 1 ml of complete Ham's F10 medium supplemented with a combination of the two molecules of interest at the following concentrations: ([…]), or ([…]). Additional wells receive 1 ml of complete medium supplemented with the diluent of the molecules of interest only (<0.05% DMSO). Each of these treatment conditions is applied in triplicate (3 wells) for each patient, in each experiment. The 24-well dishes are then incubated at 37° C. for 48 hours. Thus, the cells of each individual studied are treated in all of the conditions listed, in parallel, for 48 hours, before the measurement of palmitate β-oxidation. The fatty acid used is palmitate labeled with tritium at positions 9 and 10 (^3H-Pal). A stock solution is prepared beforehand by mixing 100 μl of ^3H-Pal, 130 μl of 50 mM “cold” palmitate and 13 ml of 25 mg/ml BSA solution. A ^3H-Pal/BSA (bovine serum albumin) complex ensuring good palmitate solubilization is thus obtained (final palmitate concentration: 500 μM). The test of ^3H-palmitate oxidation is carried out on fibroblasts seeded in a 24-well plate. The culture medium is first discarded and the wells are rinsed three times with PBS. A 125 μM ^3H-Pal working solution is prepared, from the 500 μM stock solution, in PBS with Ca/Mg, supplemented with 1 mM carnitine. 200 μl of t[…]-Pal solution is introduced into each well and the plates are incubated at 37° C. for 2 hours. During this time, three counting vials are prepared for the measurement of specific radioactivity (RDA, in CPM/nmol of fatty acids) of the reaction medium. These vials contain 5 ml of scintillation fluid, 1.5 ml of distilled water, and 20 μl of ^3H-Pal/BSA solution. The scintillation fluid converts the radioactive energy of ^3H into light energy, which thus makes it possible to measure radioactivity, expressed in counts per minute (CPM), using a liquid scintillation counter. At the end of 2 hours of incubation, 200 μl is taken from each well and mixed with 200 μl of 10% trichloroacetic acid (TCA). This strong acid ensures the precipitation of unmetabolized BSA/AG complex. The tubes are then centrifuged at 3300 rpm for 10 minutes at 4° C. After centrifugation, 350 μl of supernatant is taken and mixed with […] of 6 M NaOH in order to neutralize the pH. The total volume, or 450 μl, is transferred to an ion-exchange resin column which retains the tritiated water. These columns are then transferred to scintillation vials. […]

[2] = test system: fibroblasts of patients suffering from moderate β-oxidation deficiency; experiment: Palmitate β-oxidation, correction of deficiency, pooled statements over deficiency types; conditions: for reduction in dose by a factor, combination vs compound alone: 30 μM RSV + 35 μM BZ vs 75 μM RSV / 400 μM BZ; for reduction in dose by a factor, combination vs compound alone / concentration at which the compound alone corrects the deficiency: VLCAD and CPT2 deficiency; for concentration at which the compound alone corrects the deficiency: compound used alone; for factor by which combining the two molecules decreases the dose needed to correct the deficiency: conclusion over three types of moderate β-oxidation enzyme deficiencies
Description: The fibroblasts are grown at 37° C. in complete Ham's F10 medium, i.e., supplemented with 12% fetal calf serum, 100 U/ml penicillin, and 0.1 mg/ml streptomycin, at a concentration of 70,000 cells per ml and per well in 24-well culture dishes. Twenty-four hours after seeding, stock solutions of RSV (0.2 M) and of BZ (0.4 M) are prepared in DMSO in order to prepare the various cell treatment media. For the treatment, the culture medium is discarded and replaced with 1 ml of complete Ham's F10 medium supplemented with one of the molecules of interest at one of the following concentrations, 75 μM RSV, or 400 μM BZ, or 20 μM RSV, or 30 μM RSV, or 25 μM RSV, or 35 μM RSV, or the culture medium is discarded and replaced with 1 ml of complete Ham's F10 medium supplemented with a combination of the two molecules of interest at the following concentrations: (20 μM RSV+[…]), or (30 μM RSV+[…]). Additional wells receive 1 ml of complete medium supplemented with the diluent of the molecules of interest only (<0.05% DMSO). Each of these treatment conditions is applied in triplicate (3 wells) for each patient, in each experiment. The 24-well dishes are then incubated at 37° C. for 48 hours. Thus, the cells of each individual studied are treated in all of the conditions listed, in parallel, for 48 hours, before the measurement of palmitate β-oxidation. The fatty acid used is palmitate labeled with tritium at positions 9 and 10 (^3H-Pal). A stock solution is prepared beforehand by mixing 100 μl of ^3H-Pal, 130 μl of 50 mM “cold” palmitate and 13 ml of 25 mg/ml BSA solution. A ^3H-Pal/BSA (bovine serum albumin) complex ensuring good palmitate solubilization is thus obtained (final palmitate concentration: 500 μM). The test of ^3H-palmitate oxidation is carried out on fibroblasts seeded in a 24-well plate. The culture medium is first discarded and the wells are rinsed three times with PBS. A 125 μM ^3H-Pal working solution is prepared, from the 500 μM stock solution, in PBS with Ca/Mg, supplemented with 1 mM carnitine. 200 μl of t[…]-Pal solution is introduced into each well and the plates are incubated at 37° C. for 2 hours. During this time, three counting vials are prepared for the measurement of specific radioactivity (RDA, in CPM/nmol of fatty acids) of the reaction medium. These vials contain 5 ml of scintillation fluid, 1.5 ml of distilled water, and 20 μl of ^3H-Pal/BSA solution. The scintillation fluid converts the radioactive energy of ^3H into light energy, which thus makes it possible to measure radioactivity, expressed in counts per minute (CPM), using a liquid scintillation counter. At the end of 2 hours of incubation, 200 μl is taken from each well and mixed with 200 μl of 10% trichloroacetic acid (TCA). This strong acid ensures the precipitation of unmetabolized BSA/AG complex. The tubes are then centrifuged at 3300 rpm for 10 minutes at 4° C. After centrifugation, 350 μl of supernatant is taken and mixed with […] of 6 M NaOH in order to neutralize the pH. The total volume, or 450 μl, is transferred to an ion-exchange resin column which retains the tritiated water. These columns are then transferred to scintillation vials. The tritiated water is then eluted with 1.7 ml of distilled water. 5 ml of scintillation fluid is added to the tritiated water and the vials are placed in the liquid scintillation counter.

[3] = test system: fibroblasts of patients suffering from moderate VLCAD deficiency; experiment: Tritiated palmitate β-oxidation (FAO) in fibroblasts after 48 h treatment, VLCAD deficiency; conditions: for % increase in fatty acid oxidation (FAO): 48 h, vs carrier
Description: as §1

`CC(C)(Oc1ccc(CCNC(=O)c2ccc(Cl)cc2)cc1)C(=O)O` [BZ, 2-(4-(2-((4-chlorobenzoyl)amino)ethyl)phenoxy)-2-methylpropanoic acid] was tested, and the “% increase in fatty acid oxidation (FAO)” value ([1]; patient DIA Ke, 400 μM BZ alone) was 62%, the “% increase in fatty acid oxidation (FAO), Measured” value (from here on “% increase … Measured”) ([1]; patient DIA Ke, Condition 1, 25 μM BZ alone) was 0% and the “% increase … Measured” value ([1]; patient DIA Ke, Condition 2, 35 μM BZ alone) was 6%. For the same compound, the “% increase in fatty acid oxidation (FAO)” value ([1]; patient alpha, 400 μM BZ alone) was 88%, the “% increase … Measured” value ([1]; patient alpha, Condition 1, 25 μM BZ alone) was 0% and the “% increase … Measured” value ([1]; patient alpha, Condition 2, 35 μM BZ alone) was 6%. For the same compound, the “reduction in dose by a factor, combination vs compound alone” value [2] was 11.4, the “concentration at which the compound alone corrects the deficiency” value [2] was 400 µM and the “factor by which combining the two molecules decreases the dose needed to correct the deficiency” value [2] was 10. The “% increase in fatty acid oxidation (FAO)” value ([3]; patient E3536, 400 μM BZ alone) was 128%, the “% increase … Measured” value ([3]; patient E3536, Condition 1, 25 μM BZ alone) was 7% and the “% increase … Measured” value ([3]; patient E3536, Condition 2, 35 μM BZ alone) was 20%. For the same compound, the “% increase in fatty acid oxidation (FAO)” value ([3]; patient beta, 400 μM BZ alone) was 83%, the “% increase … Measured” value ([3]; patient beta, Condition 1, 25 μM BZ alone) was 1% and the “% increase … Measured” value ([3]; patient beta, Condition 2, 35 μM BZ alone) was 8%.

In the case of `Oc1ccc(/C=C/c2cc(O)cc(O)c2)cc1` [RSV, 5-[(E)-2-(4-hydroxyphenyl)-ethenyl]benzene-1,3-diol], the “% increase in fatty acid oxidation (FAO)” value ([1]; patient DIA Ke, 75 μM RSV alone) is reported as 44%, the “% increase … Measured” value ([1]; patient DIA Ke, Condition 1, 20 μM RSV alone) is reported as 49% and the “% increase … Measured” value ([1]; patient DIA Ke, Condition 2, 30 μM RSV alone) is reported as 66%. For the same compound, the “% increase in fatty acid oxidation (FAO)” value ([1]; patient alpha, 75 μM RSV alone) was 100%, the “% increase … Measured” value ([1]; patient alpha, Condition 1, 20 μM RSV alone) was 39% and the “% increase … Measured” value ([1]; patient alpha, Condition 2, 30 μM RSV alone) was 48%. The “reduction in dose by a factor, combination vs compound alone” value [2] was 2.5, the “concentration at which the compound alone corrects the deficiency” value [2] was 75 µM and the “factor by which combining the two molecules decreases the dose needed to correct the deficiency” value [2] was 2. The “% increase in fatty acid oxidation (FAO)” value ([3]; patient E3536, 75 μM RSV alone) was 145%, the “% increase … Measured” value ([3]; patient E3536, Condition 1, 20 μM RSV alone) was 81% and the “% increase … Measured” value ([3]; patient E3536, Condition 2, 30 μM RSV alone) was 106%. For the same compound, the “% increase in fatty acid oxidation (FAO)” value ([3]; patient beta, 75 μM RSV alone) was 67%, the “% increase … Measured” value ([3]; patient beta, Condition 1, 20 μM RSV alone) was 22% and the “% increase … Measured” value ([3]; patient beta, Condition 2, 30 μM RSV alone) was 43%.
